Marks after values point to notes of the source that are not given here.
How the values were obtained:
[1] = Phase 1 crossover study, plasma pharmacokinetics after oral and i.v. bendamustine (Example 8); conditions: for AUCinf after oral administration as % of AUCinf after intravenous administration: 90% CI M3: 76%, 98%, M4: 77%, 102%
Method: An open label, randomized two-way crossover study to assess the absolute bioavailability of oral bendamustine in patients with cancer was conducted to assess the absolute bioavailability of bendamustine administered as an oral formulation (example 2). Besides assessing the pharmacokinetics of bendamustine in plasma following oral and i.v. administration, a further objective was to evaluate the safety and tolerability of bendamustine following i.v. and especially oral administration of the formulation of example 2.
14 patients who were suffering from multiple myeloma, B-cell type chronic lymphocytic leukemia or advanced indolent non-Hodgkin's lymphoma were enrolled and were treated with bendamustine. […] After signing the informed consent form and following the screening period (days −21 to −2), eligible patients were assigned a patient number which was specific for each study site. Patients were randomized to receive one of the following on day 1 followed by the other on day 8: • a single oral dose of 110.2 mg (2×55.1 mg) bendamustine HCl • a single intravenous dose of 100 mg bendamustine HCl
Bendamustine was provided a) orally as capsules, a LFHC formulation (liquid-filled, hard-shell capsule) and b) intravenously as a solution after reconstituting a powder for the preparation of a solution for injection. The LFHC formulation (per capsule) was prepared from 55.1 mg bendamustine hydrochloride, 1.2 mg methylparaben, 0.12 mg […], 0.12 mg butylated hydroxytoluene, 10.9 mg ethanol and 532.56 mg CREMOPHOR RH40. The vial with powder for concentrate for solution was the marketed product in Germany (RIBOMUSTINE) which contains per vial 100 mg of bendamustine hydrochloride and mannitol as an excipient. This product was reconstituted with water for injection to a final concentration of 2.5 mg/ml of bendamustine HCl and was further diluted with 0.9% NaCl until about 500 ml before administration to the patient, in accordance with the instructions of the package insert.
Patients were admitted to the study site for 2 periods; days −1 to 2 (period 1) and days 7 to 9 (period 2). A total of 12 patients was to be randomized to receive treatment. Six patients were to receive treatment with a single oral dose of 110.2 mg (2×55.1 mg) bendamustine HCl (day 1) followed by a single intravenous dose of 100 mg bendamustine HCl (day 8) while 6 other patients were to receive treatment in the alternate order. Patients underwent a washout period of at least 7 days between treatments.
After oral and intravenous administration of bendamustine the concentration of bendamustine, as well as that of the active metabolites of bendamustine (M3 and M4), were determined in plasma and urine samples on day 1 and day 8. Patients returned to the study site for an end-of-study visit 7 to 14 days after completion of the second treatment period, or after early discharge/withdrawal. Subsequently the pharmacokinetic parameters of bendamustine and its metabolites were calculated.

[2] = Phase 1 crossover study, urine pharmacokinetics (Example 8); format: in vivo, human; conditions: for percentage of the dose excreted in urine as metabolite: oral administration
Source text: Urine pharmacokinetic parameters of bendamustine, M3 and M4 are presented in Table 27, Table 28 and Table 29, respectively. The percentage of the dose excreted in urine unchanged was low (2.6% and 2.1% for oral and intravenous bendamustine, respectively).

[3] = Phase 1 crossover study, safety and tolerability (Example 8); format: in vivo, human
[4] = Stability of an aqueous solution of bendamustine as a function of pH; conditions: pH values higher than about 5
[5] = M3 in plasma, Bendamustine HCl 100 mg intravenously, mean, n=11
[6] = M3 in plasma, Bendamustine HCl 110.2 mg orally, mean, n=11
[7] = M3 in urine, Bendamustine HCl 100 mg intravenously, mean, n=11
[8] = M3 in urine, Bendamustine HCl 100 mg intravenously, median, n=11
[9] = M3 in urine, Bendamustine HCl 100 mg intravenously, min-max, n=11
[10] = M3 in urine, Bendamustine HCl 110.2 mg orally, mean, n=10
[11] = M3 in urine, Bendamustine HCl 110.2 mg orally, median, n=10
[12] = M3 in urine, Bendamustine HCl 110.2 mg orally, min-max, n=10
[13] = M4 in plasma, Bendamustine HCl 100 mg intravenously, mean, n=11
[14] = M4 in plasma, Bendamustine HCl 110.2 mg orally, mean, n=11
[15] = M4 in urine, Bendamustine HCl 100 mg intravenously, mean, n=11
[16] = M4 in urine, Bendamustine HCl 100 mg intravenously, median, n=11
[17] = M4 in urine, Bendamustine HCl 100 mg intravenously, min-max, n=11
[18] = M4 in urine, Bendamustine HCl 110.2 mg orally, mean, n=10
[19] = M4 in urine, Bendamustine HCl 110.2 mg orally, median, n=10
[20] = M4 in urine, Bendamustine HCl 110.2 mg orally, min-max, n=10
[21] = bendamustine in urine, Bendamustine HCl 100 mg intravenously, mean, n=11
[22] = bendamustine in urine, Bendamustine HCl 100 mg intravenously, median, n=11
[23] = bendamustine in urine, Bendamustine HCl 100 mg intravenously, min-max, n=11
[24] = bendamustine in urine, Bendamustine HCl 110.2 mg orally, mean, n=11
[25] = bendamustine in urine, Bendamustine HCl 110.2 mg orally, median, n=11
[26] = bendamustine in urine, Bendamustine HCl 110.2 mg orally, min-max, n=11

## Cn1c(C(O)CCC(=O)O)nc2cc(N(CCCl)CCCl)ccc21 (stereo not drawn) [Batch M3, γ-hydroxybendamustine]
[1]; [5]
  AUCinf: 372 ng·h/mL
  AUClast: 370 ng·h/mL
  Cmax: 344 ng/mL
  t1/2: 43.6 min
  tmax: 49.4 min
[1]; [6]
  AUCinf: 369 ng·h/mL
  AUClast: 367 ng·h/mL
  Cmax: 243 ng/mL
  t1/2: 38.6 min
  tmax: 76.2 min
[1]; patients, oral administration
  Mean AUCinf of bendamustine relative to that of the metabolite (times higher): 10.6 times
  exposure relative to that of bendamustine: approximately 9%
[1]; patients
  AUCinf after oral administration as % of AUCinf after intravenous administration: 86%
[2]; [7]
  % Aeinf: 0.459%
  % Aelast: 0.457%
  Aeinf: 0.435 mg
  Aelast: 0.433 mg
  CLR: 1.29 L/h
[2]; [8]
  % Aeinf: 0.354%
  % Aelast: 0.353%
  Aeinf: 0.336 mg
  Aelast: 0.334 mg
  CLR: 0.856 L/h
[2]; [9]
  % Aeinf: 0.018-1.6%
  % Aelast: 0.018-1.6%
  Aeinf: 0.017 to 1.6 mg
  Aelast: 0.017 to 1.5 mg
  CLR: 0.082 to 5.2 L/h
[2]; [10]
  % Aeinf: 0.611%
  % Aelast: 0.61%
  Aeinf: 0.636 mg
  Aelast: 0.635 mg
  CLR: 2.14 L/h
[2]; [11]
  % Aeinf: 0.537%
  % Aelast: 0.553%
  Aeinf: 0.558 mg
  Aelast: 0.576 mg
  CLR: 1.49 L/h
[2]; [12]
  % Aeinf: 0.13-1.5%
  % Aelast: 0.12-1.6%
  Aeinf: 0.13 to 1.6 mg
  Aelast: 0.13 to 1.7 mg
  CLR: 0.45 to 7.4 L/h
[2]; patients
  percentage of the dose excreted in urine as metabolite: 0.6%

## O=C(O)CCCc1nc2cc(N(CCCl)CCCl)ccc2[nH]1 [Batch M4, N-desmethylbendamustine]
[1]; [13]
  AUCinf: 42.5 ng·h/mL
  AUClast: 40.8 ng·h/mL
  Cmax: 33.6 ng/mL
  t1/2: 32.6 min
  tmax: 56.1 min
[1]; [14]
  AUCinf: 44.4 ng·h/mL
  AUClast: 42.8 ng·h/mL
  Cmax: 26.9 ng/mL
  t1/2: 30.9 min
  tmax: 79.5 min
[1]; patients, oral administration
  Mean AUCinf of bendamustine relative to that of the metabolite (times higher): 88 times
  exposure relative to that of bendamustine: ~1%
[1]; patients
  AUCinf after oral administration as % of AUCinf after intravenous administration: 88%
[2]; [15]
  % Aeinf: 0.081%
  % Aelast: 0.086%
  Aeinf: 0.071 mg
  Aelast: 0.075 mg
  CLR: 1.74 L/h
[2]; [16]
  % Aeinf: 0.045%
  % Aelast: 0.043%
  Aeinf: 0.039 mg
  Aelast: 0.038 mg
  CLR: 1.66 L/h
[2]; [17]
  % Aeinf: 0.0039-0.17%
  % Aelast: 0.0028-0.21%
  Aeinf: 0.0034 to 0.15 mg
  Aelast: 0.0025 to 0.18 mg
  CLR: 0.18 to 5.3 L/h
[2]; [18]
  % Aeinf: 0.109%
  % Aelast: 0.113%
  Aeinf: 0.105 mg
  Aelast: 0.109 mg
  CLR: 2.83 L/h
[2]; [19]
  % Aeinf: 0.104%
  % Aelast: 0.104%
  Aeinf: 0.1 mg
  Aelast: 0.1 mg
  CLR: 2.24 L/h
[2]; [20]
  % Aeinf: 0.034-0.22%
  % Aelast: 0.019-0.21%
  Aeinf: 0.033 to 0.21 mg
  Aelast: 0.019 to 0.21 mg
  CLR: 0.78 to 7.1 L/h
[2]; patients
  percentage of the dose excreted in urine as metabolite: 0.1%

## Cn1c(CCCC(=O)O)nc2cc(N(CCCl)CCCl)ccc21 [bendamustine, 4-[5-[bis(2-chloroethyl)amino]-1-methylbenzimidazo-2-yl]butanoic acid]
[1]; Bendamustine HCl 110.2 mg orally vs 100 mg intravenously, arithmetic mean, n=11
  F: 69.0† %
[1]; bendamustine in plasma, Bendamustine HCl 110.2 mg orally, mean, n=12
  CL/F: 31.7 L/h
[1]; patients, intravenous administration
  Mean t1/2: approximately 30 minutes
[1]; patients, oral 110.2 mg LFHC (example 2) vs i.v. 100 mg, 90% CI: 55%, 78%
  absolute bioavailability (oral versus intravenous ratio of AUCinf), geometric mean: 66%
[1]; patients, oral administration
  tmax: approximately 0.95 hours
  tmax, individual values: 15 min and 108 min
[1]; patients, oral intake
  Mean t1/2: approximately 30 minutes
[1]; patients, 90% CI: 32%, 54%
  Cmax after oral dosing as % of Cmax after intravenous dosing: 42%
[2]; [21]
  % Aeinf: 2.07%
  % Aelast: 2.07%
  Aeinf: 1.874 mg
  Aelast: 1.88 mg
[2]; [22]
  % Aeinf: 1.22%
  % Aelast: 1.23%
  Aeinf: 1.11 mg
  Aelast: 1.12 mg
[2]; [23]
  % Aeinf: 0.27-8.8%
  % Aelast: 0.27-8.8%
  Aeinf: 0.24 to 8.0 mg
  Aelast: 0.24 to 8.0 mg
  CLR: 0.06 to 1.4 L/h
[2]; [24]
  % Aeinf: 2.64%
  % Aelast: 2.66%
  Aeinf: 2.64 mg
  Aelast: 2.66 mg
  CLR: 0.788 L/h
[2]; [25]
  % Aeinf: 2.23%
  % Aelast: 2.23%
  Aeinf: 2.23 mg
  Aelast: 2.23 mg
[2]; [26]
  % Aeinf: 0.40-5.8%
  % Aelast: 0.40-5.9%
  Aeinf: 0.40 to 5.8 mg
  Aelast: 0.40 to 5.9 mg
  CLR: 0.18 to 2.0 L/h
[2]; patients, intravenous
  percentage of the dose excreted in urine unchanged: 2.1%
[3]; intravenous dose
  patients with at least 1 adverse event considered related to study drug: no patients
[3]; intravenous treatment, 100 mg
  patients with treatment-emergent adverse events: 25%
[3]; intravenous, single dose 100 mg
  safety and tolerability: safe and well tolerated
[3]; oral and intravenous
  deaths during the study: No deaths occurred
[3]; oral dose
  patients with at least 1 adverse event considered related to study drug: 29%
[3]; oral treatment, 110.2 mg
  patients with treatment-emergent adverse events: 43%
[3]; oral, single dose 110.2 mg
  safety and tolerability: safe and well tolerated
[4]
  stability of an aqueous solution: significant hydrolytic decomposition

— US10993933B2, “Oral dosage forms of bendamustine” (ASTELLAS DEUTSCHLAND GMBH, priority 2010, dated 2021)
